In one series the target is T1, T1r2a–T1r3:S300E mutant (Oryzias latipes, UniProt A0A173M0G2).
T1 sequence (A0A173M0G2 12-802): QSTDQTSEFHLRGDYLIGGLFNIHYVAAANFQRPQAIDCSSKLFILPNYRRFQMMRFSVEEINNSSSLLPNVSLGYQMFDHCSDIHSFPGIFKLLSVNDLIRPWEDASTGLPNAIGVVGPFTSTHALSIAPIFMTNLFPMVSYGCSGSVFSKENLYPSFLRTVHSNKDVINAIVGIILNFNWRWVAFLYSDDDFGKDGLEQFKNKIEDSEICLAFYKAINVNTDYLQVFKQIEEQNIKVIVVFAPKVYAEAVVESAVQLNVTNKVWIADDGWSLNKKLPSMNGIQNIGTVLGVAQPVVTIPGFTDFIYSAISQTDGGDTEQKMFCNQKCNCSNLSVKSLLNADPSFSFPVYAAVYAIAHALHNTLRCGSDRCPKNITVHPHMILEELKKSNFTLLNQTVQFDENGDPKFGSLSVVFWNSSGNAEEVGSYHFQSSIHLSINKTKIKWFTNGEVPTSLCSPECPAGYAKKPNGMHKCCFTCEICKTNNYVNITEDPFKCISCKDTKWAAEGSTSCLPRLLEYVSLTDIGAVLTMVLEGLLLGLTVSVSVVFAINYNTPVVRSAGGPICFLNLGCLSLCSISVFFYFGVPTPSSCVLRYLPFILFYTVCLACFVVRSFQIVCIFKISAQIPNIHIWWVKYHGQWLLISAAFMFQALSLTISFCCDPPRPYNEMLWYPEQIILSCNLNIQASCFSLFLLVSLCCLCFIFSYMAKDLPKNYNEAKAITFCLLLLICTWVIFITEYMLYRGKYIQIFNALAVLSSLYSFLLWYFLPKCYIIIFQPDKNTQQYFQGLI
T1 sequence (A0A173M094 12-836 partner): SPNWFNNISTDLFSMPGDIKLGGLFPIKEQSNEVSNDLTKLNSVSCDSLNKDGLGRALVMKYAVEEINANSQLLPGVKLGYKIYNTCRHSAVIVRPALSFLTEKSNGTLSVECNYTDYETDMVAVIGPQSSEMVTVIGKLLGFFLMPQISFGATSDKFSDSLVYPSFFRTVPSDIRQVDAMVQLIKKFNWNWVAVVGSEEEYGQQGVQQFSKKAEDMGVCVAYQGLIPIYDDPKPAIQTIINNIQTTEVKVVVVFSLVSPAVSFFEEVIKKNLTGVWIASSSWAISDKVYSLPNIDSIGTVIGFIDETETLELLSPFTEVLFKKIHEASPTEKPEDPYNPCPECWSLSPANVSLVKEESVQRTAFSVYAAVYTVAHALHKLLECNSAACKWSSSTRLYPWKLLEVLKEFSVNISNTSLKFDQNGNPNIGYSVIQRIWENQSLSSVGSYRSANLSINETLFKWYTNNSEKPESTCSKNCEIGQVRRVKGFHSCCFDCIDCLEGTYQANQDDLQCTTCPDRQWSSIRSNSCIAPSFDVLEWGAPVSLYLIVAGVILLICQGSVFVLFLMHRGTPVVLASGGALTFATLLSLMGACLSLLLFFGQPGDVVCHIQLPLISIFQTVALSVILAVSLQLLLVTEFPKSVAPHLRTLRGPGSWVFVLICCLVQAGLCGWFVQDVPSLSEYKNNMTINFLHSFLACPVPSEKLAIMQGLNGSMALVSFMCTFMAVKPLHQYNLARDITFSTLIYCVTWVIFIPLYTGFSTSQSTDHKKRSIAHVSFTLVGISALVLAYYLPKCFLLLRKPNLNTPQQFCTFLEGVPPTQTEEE
Description: cell-based. Also on record: species or system medaka fish (Oryzias latipes). On the procedure: (§1) The Ca^2+ flux assays were performed using a FLEX station 3 (Molecular Devices, LLC) for the cells loaded with 100 μl of Hank's balanced salt solution (Sigma-Aldrich), containing 5 μM of the calcium indicator dye Fluo8 NW (AAT Bioquest). The stimulation was performed by adding 25 μl of 5 × concentrated solutions of taste substances, using a pipette. The intensity of the response was represented as ΔRFU (delta relative fluorescence unit) defined as maximum fluorescence value for the taste substances minus that for the Hank's Balanced Salt Solution, and was plotted versus the ligand concentration. The concentration-response curves were fitted to the Hill equation, using SigmaPlot software (Systat Software).
Mutations were introduced using QuikChange (Agilent Technologies) or PrimeStarMax (TAKARA BIO, only for T1r2a:S165I) with primers summarized in Supplementary Table 3.

The conditions of series [1]: cited from earlier work; for Hydropathy index: ref Handbook of Chemistry and Physics, CRC Press; for pI: ref Kyte & Doolittle, J. Mol. Biol., 157, 105-132, 1982; for Volume: ref Tsai et al. J. Mol. Biol., 290, 253-266,1999.
Series [2] addresses T1r2a–T1r3LBD heterodimer (Oryzias latipes, UniProt A0A173M094+A0A173M0G2). Description: FRET signal change of T1r2aLBD-Cerulean and T1r3LBD-Venus heterodimer on amino acid binding. The note with it: for FRET signal elevation of fluorescence-labelled LBDs: qualitative.
Description: The conformational change of T1r2a–T1r3LBD on ligand binding was analysed by Förster resonance energy transfer (FRET) measurement. The heterodimer of the T1r2aLBD (M1-S474)—Celurean fusion protein (T1r2aL-Ce) and the T1r3LBD (M1-S491)—Venus fusion protein (T1r3L-Ve) was stably expressed by S2 cells (Invitrogen) and purified by ANTI-FLAG M2 affinity gel (SIGMA) by use of the FLAG-tag at their C termini, as previously described[22]. […] The titration curves were fitted to the Hill equation by using KaleidaGraph (Synergy Software).
Therefore, at least two independent measurements were performed in this study, except for the inset in Fig. 2a with a single analysis.
Series [3] deals with full-length T1r2a–T1r3 receptor (Oryzias latipes, UniProt A0A173M094+A0A173M0G2). Description: Ca2+ flux assay of full-length receptor in HEK293 (Flip-In 293) cells. It counts as cell-based, medaka fish (Oryzias latipes). The note with it: for Response of the full-length receptor according to Ca2+-imaging: qualitative, tested up to 10 mM. On the procedure:
as §1

Another series deals with human T1r1–T1r3. On the set-up: method as in PMID 24214976. Conditions: cited from earlier work.
The target of series [4] is T2, T1r2a-T1r3LBD heterodimer, medaka fish (Oryzias latipes (medaka fish), UniProt A0A173M0G2;A0A173M094, glycosyl chains trimmed to single N-acetylglucosamine residues by Endo H | glycosyl chains trimmed to single N-acetylglucosamine residues by Endo H).
T2 construct: signal peptide in the construct; The two chains are joined by an intermolecular disulfide bridge, Cys344 (T1r2a) to Cys132 (T1r3); also called T1r2a-3LBD; T1r2aLBD-T1r3LBD heterodimer; source: S2 cells, stably co-expressed (5 uM kifunensine), from culture medium, purified (ANTI-FLAG M2, factor Xa, Endo H, SEC); not shown: FLAG, C-terminal, cleaved; copies: 1 + 1
Description: crystal structure; T1r2a-3LBD heterodimer co-crystallised with Fab16A, with bound L-Gln, L-Ala, L-Arg, L-Glu or Gly; sitting-drop vapor diffusion with microseeding, PEG 1500, PEG400, 0.1 M MES pH 6.0, 293 K. The note with it: both partners purified.

Where [5] appears, read: fitted parameter ± s.e. of Hill equation, intracellular Ca2+ elevation, HEK293, read-out: EC50 Receptor responses, T1r2a wt T1r3 S300E.
Where [6] appears, read: fitted parameter ± s.e. of Hill equation, Fig. 2b, intracellular Ca2+ elevation, HEK293, read-out: EC50 Receptor responses, T1r2a wt T1r3 wt.

Read-outs that look alike come from different tables or passages of the source.

As to `C[C@H](N)C(=O)O` [L-Alanine], the half-maximal effective concentration (EC50) at T1r2a–T1r3:S300E mutant (setting [5]) amounted to 1800 ± 300 µM; in series [2] it was 141 ± 37 µM; in series [3] (setting [6]) it was 2460 ± 2670 µM. In series [1], the Hydropathy index is reported as 1.8. Also, in series [1], the pI is on record as 6.00. Moreover, the Volume in series [1] is given as 90.0 Å3. Moreover, in series [2] (Fig. 2a), the “FRET signal elevation of fluorescence-labelled LBDs” value was “induced FRET signal elevation”. The “Response of the full-length receptor according to Ca2+-imaging” value (shortened to “Response”) in series [3] (Fig. 2b) was “induced responses”.
As to `NCC(=O)O` [Glycine], the “FRET signal elevation of fluorescence-labelled LBDs” value in series [2] (Fig. 2a) is on record as “induced FRET signal elevation”. Also, in series [2] (read-out: EC50 FRET changes of LBD, T1r2aLBD wt T1r3LBD wt, fitted parameter ± s.e. of Hill equation, Fig. 2a, room temperature), the EC50 is 6180 ± 3320 µM. The “Response” value in series [3] (Fig. 2b) is on record as “poor or no significant receptor responses”.
As to `N[C@@H](CCC(=O)O)C(=O)O` [L-Glutamate], in series [1], the Hydropathy index is on record as -3.5, the pI is given as 3.22 and the Volume is on record as 142.2 Å3. The concentration giving a half-maximal response (EC50) in the series on human T1r1–T1r3 is roughly 2700 µM. In series [2], this molecule yielded an EC50 of 1070 ± 382 µM. In addition, the “FRET signal elevation of fluorescence-labelled LBDs” value in series [2] (Fig. 2a) was “induced FRET signal elevation”. The “Maximum FRET change at saturating concentrations” value in series [2] (compared with glutamine, Fig. 2a) is recorded as “larger changes”. For the same molecule, in series [3] (Fig. 2b), the “Response” value is on record as “poor or no significant receptor responses”.
In turn, `N=C(N)NCCC[C@H](N)C(=O)O` [L-Arginine] yielded an EC50 on T1r2a–T1r3:S300E mutant of 1300 ± 100 µM. In addition, in series [1], the Hydropathy index was -4.5, the pI is reported as 10.76 and the Volume is 194.0 Å3. This molecule also yielded a concentration for a half-maximal effect (EC50) in series [2] of 190 ± 35 µM. In addition, the “FRET signal elevation of fluorescence-labelled LBDs” value in series [2] (Fig. 2a) is “induced FRET signal elevation”. This molecule also registered an EC50 in series [3] of 470 ± 297 µM. In addition, the “Response” value in series [3] (Fig. 2b) is “induced responses”.
In the case of `NC(=O)CCC(N)C(=O)O` (stereo in doubt) [D-glutamine], the “FRET signal elevation of fluorescence-labelled LBDs, L- versus D-glutamine comparison” value in series [2] (Fig. 2a inset, 283 K, single analysis) is “but not D-glutamine, induced FRET signal elevation”.
For `NC(=O)CC[C@H](N)C(=O)O` [L-Glutamine], the concentration giving a half-maximal response (EC50) at T1r2a–T1r3:S300E mutant (setting [5]) is 200 ± 19 µM; in series [2] it was 11.5 ± 3.4 µM; in series [3] (setting [6]), 70 ± 8 µM. Further, the “FRET signal elevation of fluorescence-labelled LBDs” value in series [2] (Fig. 2a) is on record as “induced FRET signal elevation”. The “Response” value in series [3] (Fig. 2b) is listed as “induced responses”.

B1: Fab16A, Fab fragment of the anti-T1r2a-3LBD monoclonal antibody clone 16A (Fab, V domains shown)
VH: EVQLQQSGPELVKPGASMKISCKASGYSFTGYSMNWVKQSHGKNLEWIGLINPYNGDTTYKQKFKGKATLTVDRSSSTAYMELLRLTSEDSAVYYCARSGRGAPTTTTAWFTYWGQGTLVTVSA
VL: DIVLTQSPASLAVSLGQRATISCRASESVDSYGNSFMHWYQQKPGQPPILLISRASNLESGIPARFSGSGSRTDFTLTINPVEADDFATYYCQQTNEDPRTFGGGTKLEIK
notes: Parent antibody is mouse IgG1:kappa; Fab made by papain digestion; also called anti-T1r2a-3LBD mAb clone 16A; source: mouse hybridoma (Mikuri Immunological Lab. Co.); IgG digested with Immobilized-Papain, purified (Protein A Sepharose, Mono S)
For B1, in series [4], the binding result is listed as “binds”.

These data come from PMC5457512, “Structural basis for perception of diverse chemical substances by T1r taste receptors” (Nature Communications, 2017).
